In ChEMBL document CHEMBL4706695, “Small molecule approaches to treat autoimmune and inflammatory diseases (Part I): Kinase inhibitors” (Bioorg Med Chem Lett, 2021):

Biological target: Tyrosine-protein kinase BTK (Homo sapiens, UniProt Q06187)
Experiment: Inhibition of BTK (unknown origin) One-hour enzymatic assay without pre-incubation

Chain of Tyrosine-protein kinase BTK (Q06187 whole entry): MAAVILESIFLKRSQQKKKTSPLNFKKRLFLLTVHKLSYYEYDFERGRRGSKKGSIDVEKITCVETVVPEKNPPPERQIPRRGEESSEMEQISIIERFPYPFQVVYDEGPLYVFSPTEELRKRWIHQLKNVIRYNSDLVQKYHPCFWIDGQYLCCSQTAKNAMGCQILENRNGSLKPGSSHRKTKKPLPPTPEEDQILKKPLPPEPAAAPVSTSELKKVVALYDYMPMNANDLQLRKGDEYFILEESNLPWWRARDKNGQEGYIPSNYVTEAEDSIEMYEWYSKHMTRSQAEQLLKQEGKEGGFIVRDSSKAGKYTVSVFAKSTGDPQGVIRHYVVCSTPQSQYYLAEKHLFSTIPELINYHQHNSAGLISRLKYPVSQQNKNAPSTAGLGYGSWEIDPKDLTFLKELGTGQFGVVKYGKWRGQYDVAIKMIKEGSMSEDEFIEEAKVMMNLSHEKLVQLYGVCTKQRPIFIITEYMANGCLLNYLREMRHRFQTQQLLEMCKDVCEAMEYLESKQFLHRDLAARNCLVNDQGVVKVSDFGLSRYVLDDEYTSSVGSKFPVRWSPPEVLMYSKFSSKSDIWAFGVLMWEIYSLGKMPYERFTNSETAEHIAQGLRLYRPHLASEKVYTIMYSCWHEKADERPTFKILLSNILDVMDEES

| SMILES | IC50 [nM] |
| --- | --- |
| N#CN1CCC[C@@H](n2nc(-c3ccc(Oc4ccc(F)cc4F)cc3)c(C(N)=O)c2N)C1 | 0.5 |
| C=CC(=O)N1CCC[C@@H](c2ccc(C(N)=O)c3[nH]ccc23)C1 [ELSUBRUTINIB] | 33 |
